Data as given in PMC10574767, “Extractives from Artemisia afra with Anti-Bacterial and Anti-Fungal Properties” (Plants, 2023).
≈ marks a conversion by molar mass, not a printed value. Read-outs that look alike come from different tables or passages of the source.

Columns and labels:
Salmonella sp. = test system: Salmonella sp.; design: method as in PMID 24575401; settings: cited from earlier work
S. aureus = test system: S. aureus; design: method as in PMID 24575401; settings: cited from earlier work
B. subtilis = test system: B. subtilis; design: method as in PMID 24575401; settings: cited from earlier work
HeLa cancer cells = test system: HeLa cancer cells; design: method as in doi:10.1016/j.sajb.2015.08.016; settings: dose-dependent cytotoxicity; cited from earlier work
[1] = test system: one fungal and five bacterial strains; experiment: Serial dilution microplate MIC, whole panel; format: cell-based; settings: isolated compounds, highest concentration 250 µg/mL
Procedure: (§1) The MIC value of the plant extracts and isolated compounds against one fungal and five bacterial strains (Salmonella Typhimurium ATCC 39183, Escherichia coli ATCC 25922, Pseudomonas aeruginosa ATCC 27853, Staphylococcus aureus ATCC 29213, Enterococcus faecalis ATCC 29212, and fungi culture, Candida albicans ATCC 10231) was assessed in triplicate using the serial dilution microplate method; acetone and DMSO were used as solvents. Bacterial cultures were grown in Mueller Hinton broth (Sigma Aldrich, St. Louis, MO, USA) overnight and adjusted to McFarland standard 1 (1 × 10^8 CFU/mL). Then, 100 µL of samples were transferred into the first well of a sterile 96-well microtiter plate, which contained 100 µL of water and a 1:1 serial dilution with sterilized distilled water was carried out. In each well, 100 µL of appropriately adjusted fungal or bacterial cultures were added, and the bacteria were subjected to final concentrations of 250–3.9 μg/mL for pure compounds and 2.5–0.02 mg/mL for crude extracts. Amphotericin-B and Gentamicin (Virbac, Carros, France) served as positive controls for fungi and bacteria, respectively. For sterility, water served as control, while acetone served as a negative control. The microplates were then incubated for 24 h at 37 °C. Following incubation, 40 µL of 0.2 mg/mL p-iodonitrotetrazolium violet (INT, Sigma Aldrich) dissolved in water (hot) was added to the wells before being incubated at 37 °C for another 2 h. In the case of fungi, the INT was added before incubation. The MIC was measured visually as the lowest concentration of the compounds/extracts that inhibited proliferation.

in vitro = experiment: in vitro
Procedure: Cytotoxicity of compounds and extracts was tested against mammalian cells using the MTT assay. MCF-7 cancer cells were grown in a 5% CO2 incubator in Dulbecco’s Modified Eagle’s Medium (DMEM, Highveld Biological, Johannesburg, South Africa) supplemented with 10% fetal calf serum (Adcock-Ingram, Johannesburg, South Africa) and 1% penicillin-streptomycin (10,000 U/mL and 10 mg/mL streptomycin, Sigma Aldrich). In a 5% CO2 incubator, Vero cells were grown in a minimal essential medium (MEM, Highveld Biological, South Africa) supplemented with 5% fetal calf serum (Adcock-Ingram) and 0.1% gentamicin (Virbac). Cell suspensions were obtained from 70–80% confluent monolayer cultures and were plated in 96-well cell culture plates at a density of 1 × 10^4. Plates were incubated in a 5% CO2 incubator for 24 h at 37 °C. The cells were exposed to the extracts or compounds dissolved in the media at different concentrations for 48 h. Positive and negative controls were doxorubicin (Pfizer, New York, NYC, USA) and acetone or DMSO, respectively. After that, the wells were rinsed with phosphate-buffered saline (PBS, Sigma) and 200 µL of fresh medium was poured into the wells. Thirty microlitres (5 mg/mL) of MTT (Sigma) dissolved in PBS was added to each well, and the plates were incubated at 37 °C for 4 h. The medium from the wells was removed, rinsed, and 50 µL of 100% DMSO was added to the wells. At a wavelength of 570 nm, absorbance was measured using a microplate reader (BioTek Synergy, Beijing, China). Each sample concentration was tested in quadruplicate in two repeats (n = 8), and the concentration causing 50% inhibition of cell viability (LC50) was calculated. Selectivity index (SI) values for the extracts/compounds were obtained by dividing cytotoxicity LC50 values of normal (Vero) cells by those of the cancer cells.

Staphylococcus aureus = test system: Staphylococcus aureus; design: method as in PMID 19007012; settings: filter paper slice method; cited from earlier work
[2] = test system: Candida albicans ATCC 10231; experiment: Serial dilution microplate MIC (fungi); format: cell-based; settings: Table 2; for MIC: Candida albicans, read-out: Minimum inhibitory concentration (MIC) C. albicans; for Selectivity index C. albicans: in brackets, Vero LC50 vs MIC
Procedure: as §1

IL-6 production = test system: IL-6 production; design: method as in PMID 25573777; settings: TNF-α stimulated MG-63 cells; cited from earlier work
[3] = test system: Staphylococcus aureus ATCC 29213; experiment: Serial dilution microplate MIC; format: cell-based; settings: Table 2; for MIC: Staphylococcus aureus, read-out: Minimum inhibitory concentration (MIC) S. aureus; for Selectivity index S. aureus: in brackets, Vero LC50 vs MIC
Procedure: as §1

[4] = test system: Enterococcus faecalis ATCC 29212; experiment: Serial dilution microplate MIC; format: cell-based; settings: Table 2; for MIC: Enterococcus faecalis, read-out: Minimum inhibitory concentration (MIC) E. faecalis; for Selectivity index E. faecalis: in brackets, Vero LC50 vs MIC
Procedure: as §1

[5] = test system: Salmonella Typhimurium ATCC 39183; experiment: Serial dilution microplate MIC; format: cell-based; settings: for MIC: Salmonella enterica; for Selectivity index S. Typhimurium: in brackets, Vero LC50 vs MIC
Procedure: as §1

[6] = test system: Escherichia coli ATCC 25922; experiment: Serial dilution microplate MIC; format: cell-based; settings: Table 2; for MIC: Escherichia coli, ATCC25922, isolated compounds, read-out: Minimum inhibitory concentration (MIC) E. coli; for Selectivity index E. coli: in brackets, Vero LC50 vs MIC
Procedure: as §1

[7] = test system: Pseudomonas aeruginosa ATCC 27853; experiment: Serial dilution microplate MIC; format: cell-based; settings: Table 2; for MIC: Pseudomonas aeruginosa, read-out: Minimum inhibitory concentration (MIC) P. aeruginosa; for Selectivity index P. aeruginosa: in brackets, Vero LC50 vs MIC
Procedure: as §1

[8] = design: method as in PMID 22693528; settings: cited from earlier work
Candida albicans = test system: Candida albicans; design: method as in PMID 22693528; settings: cited from earlier work
[9] = test system: Stenotrophomonas maltophila DMST 19079; design: method as in PMID 31119085; settings: cited from earlier work
[10] = test system: Enterococcus faecium UCLA 192; design: method as in PMID 31119085; settings: cited from earlier work
[11] = design: method as in PMID 23878606; settings: read-out: EC50 scavenging ABTS; cited from earlier work
[12] = design: method as in PMID 23878606; settings: read-out: EC50 scavenging DPPH; cited from earlier work
[13] = test system: Staphylococcus aureus ATCC 43300; design: method as in PMID 31119085; settings: cited from earlier work
[14] = test system: S. aureus, MRSA, Proteus mirabilis, S. typhi, K. pneumoniae, E. coli, Bacillus subtilis, C. albicans and C. tropicalis; settings: 200µg/mL; cited from earlier work
[15] = test system: normal human primary fibroblasts; design: method as in ref 66 = [66]; 66. NCCLS 2007 Available online: http://www.nccls.org (accessed on 15 March 2022); settings: cited from earlier work
P. aeruginosa = test system: P. aeruginosa; design: method as in doi:10.1590/0102-695X20142413348; settings: cited from earlier work
Huh7 cells = test system: Huh7 cells; design: method as in ref 66 = [66]; 66. NCCLS 2007 Available online: http://www.nccls.org (accessed on 15 March 2022); settings: cited from earlier work
HepG2 cells = test system: HepG2 cells; design: method as in ref 66 = [66]; 66. NCCLS 2007 Available online: http://www.nccls.org (accessed on 15 March 2022); settings: cited from earlier work
E. faecalis = test system: E. faecalis; design: method as in doi:10.1590/0102-695X20142413348; settings: cited from earlier work
[16] = isolated compounds, Table 2, read-out: Minimum inhibitory concentration (MIC) S. Typhimurium

Row | Compound | CC50 at 48 h (in vitro; monkey, LC50) | MIC ([2]; ATCC10231, isolated compounds) | Selectivity index C. albicans [2] | MIC ([3]; ATCC29213, isolated compounds) | Selectivity index S. aureus [3] | MIC ([4]; ATCC29212, isolated compounds) | Selectivity index E. faecalis [4] | MIC [5, 16] | Selectivity index S. Typhimurium ([5]; Table 2) | MIC [6] | Selectivity index E. coli [6] | MIC ([7]; ATCC27853, isolated compounds) | Selectivity index P. aeruginosa [7] | further results
1 | C[C@@H]1CC[C@H]2[C@@H](C)C(=O)O[C@@H]3O[C@@]4(C)CC[C@@H]1[C@]32OO4 [Artemisinin] |  |  |  |  |  |  |  |  |  |  |  |  |  | MIC Salmonella sp. (Salmonella sp.): 90 µg/mL (≈ 319 µM); MIC S. aureus (S. aureus): 90 µg/mL (≈ 319 µM); MIC B. subtilis (B. subtilis): 90 µg/mL (≈ 319 µM)
2 | C=C1C(=O)O[C@@H]2C[C@@]3(C)CCCC(=C)[C@@H]3C[C@H]12 [Isoalantolactone] |  |  |  |  |  |  |  |  |  |  |  |  |  | IC50 (HeLa cancer cells): 8.15 ± 1.16 µM
3 | COc1cc2ccc(=O)oc2c(OC)c1O[C@H]1O[C@@H](CO)[C@H](O)[C@@H](O)[C@@H]1O [Isofraxidin-7-O-β-D-glucopyranoside, isofraxidin-7-O-β-D-glucopyranoside] | > 200 µg/mL | 250 µg/mL (≈ 650 µM) | > 0.8 | 250 µg/mL (≈ 650 µM) | > 0.8 | > 250 µg/mL | < 0.8 | 250 µg/mL (≈ 650 µM) | > 0.8 | 250 µg/mL (≈ 650 µM) | > 0.8 | > 250 µg/mL | < 0.8 | MIC ([1]; all tested strains, read-out: MIC against all tested microorganisms): ≥ 250 µg/mL; MIC against all tested microorganisms [1]: no efficacy; Anti-bacterial effect against Staphylococcus aureus (Staphylococcus aureus): no activity; Inhibitory activity against IL-6 production (IL-6 production): 14%
4 | COc1cc2ccc(=O)oc2cc1O [Scopoletin, scopoletin] |  |  | > 0.8 | 250 µg/mL (≈ 1300 µM) | > 0.8 |  |  |  | > 1.6 | 62.5 µg/mL (≈ 325 µM) | > 3.2 |  | < 0.8 | IC50 DPPH radical [8]: 1.24 µg/mL (≈ 6.45 µM); Activity against Candida albicans (Candida albicans): ineffective; MIC Stenotrophomonas maltophila DMST 19079 [9]: 256 µg/mL (≈ 1330 µM); MIC Enterococcus faecium UCLA 192 [10]: 128 µg/mL (≈ 666 µM); CC50 at 48 h (in vitro): > 200 µg/mL; MIC ([2]; ATCC10231, 24 h, isolated compounds): 250 µg/mL (≈ 1300 µM); EC50 [11]: 191.51 ± 0.01 µM; EC50 [12]: 647.89 ± 0.07 µM; MIC ([3]; ATCC29213, 24 h, isolated compounds): 250 µg/mL (≈ 1300 µM); MIC ([4]; ATCC29212, 24 h, isolated compounds): 250 µg/mL (≈ 1300 µM); MIC ([5]; read-out: Minimum inhibitory concentration (MIC) S. Typhimurium, isolated compounds, Table 2): 125 µg/mL (≈ 650 µM); Selectivity index E. coli ([6]; listed as scopoletin): 3; MIC ([7]; ATCC27853, 24 h, isolated compounds): > 250 µg/mL; MIC Staphylococcus aureus ATCC 43300 [13]: 128 µg/mL (≈ 666 µM)
5 | CC[C@@H](CC[C@@H](C)[C@H]1CC[C@H]2[C@@H]3CC=C4C[C@@H](O[C@H]5O[C@@H](CO)[C@H](O)[C@@H](O)[C@@H]5O)CC[C@]4(C)[C@H]3CC[C@]12C)C(C)C [Sitosterol-3-O-β-D-glucopyranoside, sitosterol-3-O-β-D-glucopyranoside] | > 200 µg/mL | 250 µg/mL (≈ 433 µM) | > 0.8 | > 250 µg/mL | < 0.8 | 31.2 µg/mL (≈ 54.2 µM) | > 6.4 | > 250 µg/mL | < 0.8 | > 250 µg/mL | < 0.8 | > 250 µg/mL | < 0.8 | Anti-bacterial and anti-fungal activity [14]: wide spectrum of anti-bacterial and anti-fungal activity; Cytotoxic effects on normal human primary fibroblasts [15]: not against normal human primary fibroblasts; MIC P. aeruginosa (P. aeruginosa): 10 µg/mL (≈ 17.3 µM); IC50 proliferation of Huh7 cells (Huh7 cells): 5.25 ± 0.14 µg/mL; IC50 proliferation of HepG2 cells (HepG2 cells): 4.64 ± 0.48 µg/mL; MIC E. faecalis (E. faecalis): 15 µg/mL (≈ 26 µM); Selectivity index E. faecalis ([4]; listed as sitosterol-3-O-β-D-glucopyranoside): more than 6
